Legend:
[1] = tested on: [3H]5-HT uptake by synaptosomes; experiment: {3H} Serotonin (5-HT) Uptake Inhibition Test in brain synaptosomes; type: biochemical, rat (male Slc: Wistar strain); settings: for IC50: 5 nM [3H]5-HT, 5 min at 37° C, rat brain synaptosomes
Source text: (1) Evaluation of Effects on Neurotransmittal Systems {^3 H} Serotonin (5-HT) Uptake Inhibition Test
Compound (a): a compound of the present invention
Compound (b): 1-[3-{4-(3,4-dichlorophenyl)-piperidin-1-yl}propylcarbamoyl]-2-oxopyrrolidin (Japanese Patent Publication (KOKAI) No.131155/1989).
Male Slc: Wistar strain rats (12-week-old, Japan SLC).
Rats were killed by decapitation and a whole brain except for cerebellum is isolated immediately. The isolated tissue was homogenized in 20 volume of ice-cold 0.32 M sucrose solution by Potter-type homogenizer and centrifuged at 1,000× g for 10 min. The supernatant is centrifuged at 40,000× g for 20 min. The resultant pellet is resuspended in 20 volume of Krebs-Henseleit buffer containing 1 mM ascorbate, 0.17 mM EDTA and 0.08 mM pargyline by Polytron and centrifuged at 40,000× g for 10 min, which procedure was repeated two more times. The finally obtained pellet was resuspended in 20 volume of ice-cold Krebs-Henseleit buffer using Polytron. The resultant suspension was diluted to 1/10 with the same buffer to give a synaptosome sample.
A mixture of 5 nM [^3 H]5-HT (10 μl), synaptosome sample (480 μl ) and a solution (10 μl ) containing a test compound at a predetermined concentration was incubated for 5 min at 37° C. The reaction was stopped by diluting the mixture with ice-cold Krebs-Henseleit buffer (2.5 ml) and filtering with suction on Whatman GF/C paper. The filter paper was washed three times with ice-cold Krebs-Henseleit buffer (2.5 ml each) and allowed to stand for about 18 hr in Cleasol-1 solution (5 ml). The radioactivity was then measured by means of a liquid scintillation counter. A control experiment was carried out in the same manner as the above using 5 nM [^3 H]5-HT (10 μl ), synaptosome sample (480 μl ) and a solvent (10 μl ) used for dissolving a test compound to obtain blank values of radioactivity. […]

[2] = tested on: hippocampus CAI pyramidal cells; experiment: Inhibitory effect against delayed necrosis of hippocampus pyramidal cells after cerebral ischemia (bilateral common carotid artery ligation); type: in vivo, Mongolian gerbil; settings: for injury (%) in pyramidal cell layer: 30 min before 5 min occlusion, 4th day; for inhibition (%) of injury: vs control
Method: Inhibitory effect against the delayed necrosis of hippocampus CAI pyramidal cells was determined.
Compound (a) and compound (b) were again used in this experiment. Three to eight male mice (Mongolian gerbil, 11 to 12-week-old, Seiwa Jikken-dobutsuKenkyusyo) were used for one group.
Each animal was intraperitoneally administered a solution of the test compound (a) or (b) dissolved in distilled water, or only distilled water (for control) at 0.2 ml/100 g weight of the animal. Thirty minutes later, under the halothane anesthesia, bilateral common carotid artery was separated from surrounding tissues and ligated for a period of 5 min with Sugita's artery Klemme. Anesthesia was stopped at the time of artery occlusion. On the 4th day after the operation, each animal was anesthetized with pentobarbital Na (45 mg/kg), and brain was perfused with 4% paraformaldehyde solution and removed. From the brain was prepared a piece of cerebral preparation containing hippocampus. It was placed in Carnoy's fixative overnight for fixation and embedded in paraffin, from which sliced coronal preparations of 10 μm thick were prepared. Each cerebral preparation was stained with hematoxylin-eosin and the rate of injury (%) in pyramidal cell layer extending from paramedian to CA4 was observed using two-dimensional image analyzer (Cosmozon IS, Nicon).

[3] = tested on: 7-alkoxycumarin-O-dialkylase; experiment: Enzyme Induction Test (liver microsomal 7-alkoxycumarin-O-dialkylase activities after repeated dosing); type: in vivo, mouse (male, DS)
Method: Male mice (DS, 5-6 week-old) received intraperitoneally 100 mg/kg of the compound (a) of the present invention or the compound (c) (1-[3-}4-(3,4,-dichlorophenyl)-1,2,5,6-tetrahydropiperidin-1-yl}propylcarbamoyl]-2-oxopyrrolidine) suspended in 5% gum arabic once a day for three days. After 24 hrs from the final administration, the liver was removed from the animal, and liver microsome was prepared by means of centrifugal fractionation. Additional liver microsomes were prepared in the same manner as above by intraperitoneally administering a typical enzyme inducer, phenobarbital (dissolved in saline) or β-naphthoflavone (suspended in sesame oil), to mice. Enzymatic activities of the above liver microsomes on drug metabolism were evaluated by determining their 7-alkoxycumarin-O-dialkylase activities.

[4] = mouse, in vivo, ip, 100 mg/kg, 1440 min
[5] = i.p., compounds (a), (c): 100 mg/kg once a day for three days, control = 1.00
[6] = i.p., compounds (a), (c): 100 mg/kg once a day for three days, liver microsomes
[7] = three days, compared with the control

## 1-[3-{4-(3,4-dichlorophenyl)-piperidin-1-yl}propylcarbamoyl]-2-oxopyrrolidin [Compound (b)]
[1]
  IC50: 23 µM
[2]; 12.5 mg/kg i.p.
  injury (%) in pyramidal cell layer: 44.0 ± 3.2%
  inhibition (%) of injury: +2.8%
[2]; 25.0 mg/kg i.p.
  injury (%) in pyramidal cell layer: 28.1 ± 8.3%
  inhibition (%) of injury: +38.0%
[2]; 50.0 mg/kg i.p.
  injury (%) in pyramidal cell layer: 30.7 ± 3.9%
  inhibition (%) of injury: +32.1%

## O=C1CCCN1C(=O)NCCCN1CCC(c2ccc(Cl)c(Cl)c2)CC1 [Compound (a), 1-[3-{4-(3,4-Dichlorophenyl)piperidin-1-yl}-propylcarbamoyl]-2-oxopyrrolidine]
[1]
  IC50: 0.13 µM
[1]; compared to compound (b)
  serotonin uptake inhibitory activity (in words): much more potent serotonin uptake inhibitory activity
[2]; 12.5 mg/kg i.p.
  injury (%) in pyramidal cell layer: 45.9 ± 2.1%
  inhibition (%) of injury: +8.0%
[2]; 25.0 mg/kg i.p.
  injury (%) in pyramidal cell layer: 33.6 ± 5.3%
  inhibition (%) of injury: +32.7%
[2]; 50 mg/kg i.p.
  inhibition of delayed necrosis of hippocampus CAI pyramidal cells (in words): completely inhibited
[2]; 50.0 mg/kg i.p.
  injury (%) in pyramidal cell layer: 0%
  inhibition (%) of injury: +100%
[2]; 12.5 and 25 mg/kg i.p.
  inhibition of delayed necrosis of hippocampus CAI pyramidal cells (in words): significantly inhibited
[3]; mouse, in vivo
  enzyme induction (in words): no enzyme induction was observed
[3]; mouse, in vivo, ip, 100 mg/kg
  deethylation activity (7-alkoxycumarin-O-dialkylase): 2.59 ± 0.27 nmol/min/mg of microsome protein
  demethylation activity (7-alkoxycumarin-O-dialkylase): 2.79 ± 0.33 nmol/min/mg of microsome protein
  depropylation activity (7-alkoxycumarin-O-dialkylase): 1.08 ± 0.12 nmol/min/mg of microsome protein
[3]; [4]
  deethylation activity, ratio to control (in parentheses): 0.98
  demethylation activity, ratio to control (in parentheses): 1.08
  depropylation activity, ratio to control (in parentheses): 0.89

## O=C1CCCN1C(=O)NCCCN1CC=C(c2ccc(Cl)c(Cl)c2)CC1 [Compound (c)]
[3]; [5]
  deethylation activity, ratio to control (in parentheses): 1.99
  demethylation activity, ratio to control (in parentheses): 1.61
  depropylation activity, ratio to control (in parentheses): 2.20
[3]; [6]
  deethylation activity (7-alkoxycumarin-O-dialkylase): 2.29 ± 0.18 nmol/min/mg of microsome protein
  demethylation activity (7-alkoxycumarin-O-dialkylase): 1.83 ± 0.19 nmol/min/mg of microsome protein
  depropylation activity (7-alkoxycumarin-O-dialkylase): 0.99 ± 0.55 nmol/min/mg of microsome protein
[3]; mouse liver, three days
  enzyme induction (in words): carcinogenic enzyme induction of β-naphthoflavone type (3-methylcholanthrene type)
[3]; [7]
  increase in deethylation and depropylation activities: 1.99-2.20 times
  increase in demethylation activity: 1.61 times

## CCC1(c2ccccc2)C(=O)NC(=O)NC1=O [phenobalbital, phenobarbital]
[3]; [5]
  deethylation activity, ratio to control (in parentheses): 2.53
  demethylation activity, ratio to control (in parentheses): 2.29
  depropylation activity, ratio to control (in parentheses): 2.20
[3]; [6]
  deethylation activity (7-alkoxycumarin-O-dialkylase): 2.63 ± 0.18 nmol/min/mg of microsome protein
  demethylation activity (7-alkoxycumarin-O-dialkylase): 2.18 ± 0.13 nmol/min/mg of microsome protein
  depropylation activity (7-alkoxycumarin-O-dialkylase): 1.06 ± 0.06 nmol/min/mg of microsome protein

## O=c1cc(-c2ccccc2)oc2ccc3ccccc3c12 [β-naphtoflavone, β-naphthoflavone]
[3]; mouse, in vivo, ip, 100 mg/kg
  deethylation activity (7-alkoxycumarin-O-dialkylase): 5.26 ± 0.28 nmol/min/mg of microsome protein
  demethylation activity (7-alkoxycumarin-O-dialkylase): 1.94 ± 0.08 nmol/min/mg of microsome protein
  depropylation activity (7-alkoxycumarin-O-dialkylase): 2.97 ± 0.20 nmol/min/mg of microsome protein
[3]; [4]
  deethylation activity, ratio to control (in parentheses): 5.06
  demethylation activity, ratio to control (in parentheses): 2.04
  depropylation activity, ratio to control (in parentheses): 6.19
